The source of these data is patent US11612603B1, “3-triazolyl methyl-1,3,5-triazine-2,4-dione compounds and preparation method and application thereof” (priority 2022, dated 2023).

The test concerns the target SARS-CoV-2 3CL^pro (Severe acute respiratory syndrome coronavirus 2 (2019-nCoV) (SARS-CoV-2), UniProt P0DTD1). Put plainly: biochemical. The note with it: for IC50: 3CL^pro FRET.

Where “and” joins values, the source holds several entries; their conditions need not be identical. Equal values may be shown once.

Broadly, the IC50 is the point on the concentration scale where inhibition reaches its midpoint. Low values mean greater potency, high ones weaker potency.

For `Cn1cc2cc(/N=c3\[nH]c(=O)n(Cc4cnn[nH]4)c(=O)n3Cc3ccccc3)c(Cl)cc2n1` [Compound 2], where the note is “class symbols”, the IC50 fell in the range of 500 to 1000 nM.
Consider `Cc1ccc(Cn2c(=O)n(Cc3cnn[nH]3)c(=O)[nH]/c2=N\c2cc3cn(C)nc3cc2Cl)cc1` [Compound 3], for which, under “class symbols”, the half-maximal inhibitory concentration (IC50) lay in the range of 500 to 1000 nM.
Same read-out and setting: the same measure for `Cn1cc2cc(/N=c3\[nH]c(=O)n(Cc4cnn[nH]4)c(=O)n3Cc3ccc(C(C)(C)C)cc3)c(Cl)cc2n1` [Compound 4]: 500 to 1000 nM; for `Cn1cc2cc(/N=c3\[nH]c(=O)n(Cc4cnn[nH]4)c(=O)n3Cc3ccc([N+](=O)[O-])cc3)c(Cl)cc2n1` [Compound 5]: 200 to 500 nM.
`COc1ccc(Cn2c(=O)n(Cc3cnn[nH]3)c(=O)[nH]/c2=N\c2cc3cn(C)nc3cc2Cl)cc1` [Compound 6] came in with an IC50 (class symbols) above 1000 nM.
With `Cn1cc2cc(/N=c3\[nH]c(=O)n(Cc4cnn[nH]4)c(=O)n3Cc3ccc(OC(F)(F)F)cc3)c(Cl)cc2n1` [Compound 7], the IC50 was below 100 nM. The IC50 (class symbols) is below 100 nM.
As to `Cn1cc2cc(/N=c3\[nH]c(=O)n(Cc4cnn[nH]4)c(=O)n3Cc3ccc(F)cc3)c(Cl)cc2n1` [Compound 8], the concentration for half-maximal inhibition (IC50) (class symbols) lay in the range of 200 to 500 nM.
Still for that read-out and setting: then `Cn1cc2cc(/N=c3\[nH]c(=O)n(Cc4cnn[nH]4)c(=O)n3Cc3ccc(Cl)cc3)c(Cl)cc2n1` [Compound 9], with 200 to 500 nM; and `Cc1cc(C)cc(Cn2c(=O)n(Cc3cnn[nH]3)c(=O)[nH]/c2=N\c2cc3cn(C)nc3cc2Cl)c1` [Compound 13], with 500 to 1000 nM.
`COc1cc(Cn2c(=O)n(Cc3cnn[nH]3)c(=O)[nH]/c2=N\c2cc3cn(C)nc3cc2Cl)cc(OC)c1` [Compound 14] came in with an IC50 (class symbols) of 500 to 1000 nM.
For the molecule `Cn1cc2cc(/N=c3\[nH]c(=O)n(Cc4cnn[nH]4)c(=O)n3Cc3cc(F)cc(F)c3)c(Cl)cc2n1` [Compound 15], the IC50 is below 200 nM.
As to `Cn1cc2cc(/N=c3\[nH]c(=O)n(Cc4cnnn4C)c(=O)n3Cc3cc(F)c(F)cc3F)c(Cl)cc2n1` [Compound 16], the IC50 was below 200 nM.
`Cn1cc2cc(/N=c3\[nH]c(=O)n(Cc4cnnn4C4CC4)c(=O)n3Cc3cc(F)c(F)cc3F)c(Cl)cc2n1` [Compound 21]: the 50% inhibitory concentration (IC50) (class symbols) was in the range of 200 to 500 nM.
`CC(C)n1nncc1Cn1c(=O)[nH]/c(=N\c2cc3cn(C)nc3cc2Cl)n(Cc2cc(F)c(F)cc2F)c1=O` [Compound 22] displayed an IC50 below 200 nM.
`CC(C)Cn1nncc1Cn1c(=O)[nH]/c(=N\c2cc3cn(C)nc3cc2Cl)n(Cc2cc(F)c(F)cc2F)c1=O` [Compound 23] showed an IC50 below 200 nM.
Molecule `Cn1cc2cc(/N=c3\[nH]c(=O)n(Cc4cnnn4C4CCC4)c(=O)n3Cc3cc(F)c(F)cc3F)c(Cl)cc2n1` [Compound 24] returned an IC50 (class symbols) of 200 to 500 nM.
For “(E)-6-(2-methyl-2H-indazol-5-yl)imino)-3-(1-ethyl-1H-1,2,3-triazol-5-yl)methyl)-1-(4-fluorobenzyl)-1,3,5-triazine-2,4-dione [Compound 19]”, the IC50 (class symbols) is 200 to 500 nM.
In the case of “(E)-6-(6-chloro-2-methyl-2H-indazol-5-yl)imino)-3-(1-ethyl-1H-1,2,3-triazole-5-(yl)methyl)-1-(4-(trifluoromethyl)benzyl)-1,3,5-triazine-2,4-dione [Compound 18]”, the IC50 is below 100 nM. Besides, the IC50 (class symbols) is below 100 nM.
Turning to “(E)-6-(6-chloro-2-methyl-2H-indazol-5-yl)imino)-3-(1-ethyl-1H-1,2,3-triazole-5-yl)methyl)-1-(2,4,5-trifluorobenzyl)-1,3,5-triazine-2,4-dione [Compound 17]”, the IC50 was < 200 nM and < 100 nM and 123 nM. Moreover, the IC50 (class symbols) is below 100 nM. For the same molecule, under “Conc 0.1 nM”, the “Inhibitory activity on 3CL^pro (inhibition rate)” value (shortened to “Inhibitory activity on 3CL^pro”) turned out to be 0.65%. In addition, the “Inhibitory activity on 3CL^pro” value (Conc 1 nM) came to 5.00%. For the same molecule, the “Inhibitory activity on 3CL^pro” value (Conc 5 nM) came out at 8.20%. Moreover, where the note is “Conc 10 nM”, the “Inhibitory activity on 3CL^pro” value is recorded as 15.16%. The “Inhibitory activity on 3CL^pro” value (Conc 20 nM) is listed as 18.22%. Also, the “Inhibitory activity on 3CL^pro” value (Conc 30 nM) is given as 24.39%. Besides, for the setting “Conc 50 nM”, the “Inhibitory activity on 3CL^pro” value is reported as 33.16%. Under “Conc 100 nM”, the “Inhibitory activity on 3CL^pro” value is on record as 45.44%. For the same molecule, where the note is “Conc 500 nM”, the “Inhibitory activity on 3CL^pro” value turned out to be 70.62%. Moreover, the “Inhibitory activity on 3CL^pro” value (Conc 1000 nM) came to 89.73%.
In the case of “(E)-6-(6-chloro-2-methyl-2H-indazol-5-yl)imino)-3-(1-ethyl-1H-1,2,3-triazole-5-yl)methyl)-1-(4-fluorobenzyl)-1,3,5-triazine-2,4-dione [Compound 20]”, the IC50 (class symbols) lay in the range of 200 to 500 nM.
